Assays:
[1] = Reduction of the solubility of synthetic apatite after treatment; conditions: pH 5, consumption of lactic acid; comparison with untreated apatite
Procedure: The hydroxyacetonitrile diphosphonic acid of the invention effectively reduces the solubility of apatite by absorbing it on the tartar surface. To determine this property, the solubility of synthetic apatite after treatment with the hydroxyacetonitrile diphosphonic acid is determined by comparison with untreated apatite. To this end, a suspension of apatite is kept at pH 5 by neutralizing the hydroxyl ions passing into solution with lactic acid and determining the consumption of acid required for this purpose.

[2] = Hampshire test (calcium complexing power); assay type: physicochemical; conditions: pH 11; titrated with 0.2 molar calcium chloride until it remained cloudy; used as tetrasodium salt, converted for the pure diphosphonic acid
Procedure: The calcium complexing power was determined by the Hampshire test in which the hydroxyacetonitrile diphosphonic acid, to which Na2 CO3 has been added, was titrated with a 0.2 molar calcium chloride solution at pH 11 until it remained cloudy. Hydroxyacetonitrile diphosphonic acid was used in the form of its tetrasodium salt and the measured values obtained were converted for the pure diphosphonic acid.

[3] = Inhibition of conversion of calcium hydrogen phosphate into hydroxyl apatite (protons released); conditions: protons released in a calcium phosphate solution supersaturated at 60° C.
Procedure: A crucial step in the formation of tartar is the conversion of calcium hydrogen phosphate into hydroxyl apatite. […] To this end, the degree of inhibition of this conversion was measured by determining the protons released in a calcium phosphate solution supersaturated at 60° C. in accordance with the following equation: […]

## CC(O)(P(=O)(O)O)P(=O)(O)O
[1]
  Reduction of the solubility of apatite: 53%

## N#CC(O)(P(=O)(O)O)P(=O)(O)O [Hydroxyacetonitrile diphosphonic acid, hydroxyacetonitrile diphosphonic acid]
[2]
  calcium complexing power: 520 mg CaCO3 /g acid
[3]
  degree of inhibition of conversion of calcium hydrogen phosphate into hydroxyl apatite: 91%
[1]
  Reduction of the solubility of apatite: 65%

## O=P(O)(O)C(O)P(=O)(O)O [Hydroxymethane diphosphonic acid]
[3]
  degree of inhibition of conversion of calcium hydrogen phosphate into hydroxyl apatite: 81%

## O=P(O)(O)C(O)P(=O)(O)O [drawing 8]
[2]
  calcium complexing power: 130 mg CaCO3 /g acid

Source: patent publication US4908138A (priority 1987, dated 1990)
